Converted amounts (≈) assume the structure as drawn. The source made the active and inactive calls. No cut-off for these calls is given here.
How the values were obtained:
[1] = test system: Escherichia coli; experiment: Antibacterial activity against non-gentamicin-resistant Escherichia coli clinical isolate after 18 hrs by agar dilution method; type: functional
[2] = test system: Klebsiella aerogenes; experiment: Antibacterial activity against non-gentamicin-resistant Enterobacter aerogenes clinical isolate after 18 hrs by agar dilution method; type: functional
[3] = test system: Citrobacter koseri; experiment: Antibacterial activity against non-gentamicin-resistant Citrobacter diversus clinical isolate after 18 hrs by agar dilution method; type: functional
[4] = test system: Citrobacter freundii; experiment: Antibacterial activity against non-gentamicin-resistant Citrobacter freundii clinical isolate after 18 hrs by agar dilution method; type: functional
[5] = test system: Providencia rettgeri; experiment: Antibacterial activity against non-gentamicin-resistant Proteus rettgeri clinical isolate after 18 hrs by agar dilution method; type: functional
[6] = test system: Acinetobacter calcoaceticus; experiment: Antibacterial activity against non-gentamicin-resistant Acinetobacter calcoaceticus clinical isolate after 18 hrs by agar dilution method; type: functional
[7] = test system: Pseudomonas aeruginosa; experiment: Antibacterial activity against non-gentamicin-resistant Pseudomonas aeruginosa clinical isolate after 18 hrs by agar dilution method; type: functional
[8] = test system: Pseudomonas sp.; experiment: Antibacterial activity against non-gentamicin-resistant Pseudomonas spp. clinical isolate after 18 hrs by agar dilution method; type: functional
[9] = test system: Haemophilus influenzae; experiment: Antibacterial activity against non-gentamicin-resistant Haemophilus influenzae clinical isolate after 18 hrs by agar dilution method; type: functional
[10] = test system: Haemophilus parainfluenzae; experiment: Antibacterial activity against non-gentamicin-resistant Haemophilus parainfluenzae clinical isolate after 18 hrs by agar dilution method; type: functional
[11] = test system: Staphylococcus aureus; experiment: Antibacterial activity against non-gentamicin-resistant Staphylococcus aureus clinical isolate after 18 hrs by agar dilution method; type: functional
[12] = test system: Escherichia coli; experiment: Antibacterial activity against non-gentamicin-resistant Escherichia coli clinical isolate assessed as susceptible isolates after 18 hrs by agar dilution method; type: functional
[13] = test system: Enterobacter cloacae; experiment: Antibacterial activity against non-gentamicin-resistant Enterobacter cloacae clinical isolate assessed as susceptible isolates after 18 hrs by agar dilution method; type: functional
[14] = test system: Klebsiella aerogenes; experiment: Antibacterial activity against non-gentamicin-resistant Enterobacter aerogenes clinical isolate assessed as susceptible isolates after 18 hrs by agar dilution method; type: functional
[15] = test system: Citrobacter koseri; experiment: Antibacterial activity against non-gentamicin-resistant Citrobacter diversus clinical isolate assessed as susceptible isolates after 18 hrs by agar dilution method; type: functional
[16] = test system: Citrobacter freundii; experiment: Antibacterial activity against non-gentamicin-resistant Citrobacter freundii clinical isolate assessed as susceptible isolates after 18 hrs by agar dilution method; type: functional
[17] = test system: Providencia rettgeri; experiment: Antibacterial activity against non-gentamicin-resistant Proteus rettgeri clinical isolate assessed as susceptible isolates after 18 hrs by agar dilution method; type: functional
[18] = test system: Acinetobacter calcoaceticus; experiment: Antibacterial activity against non-gentamicin-resistant Acinetobacter calcoaceticus clinical isolate assessed as susceptible isolates after 18 hrs by agar dilution method; type: functional
[19] = test system: Pseudomonas aeruginosa; experiment: Antibacterial activity against non-gentamicin-resistant Pseudomonas aeruginosa clinical isolate assessed as susceptible isolates after 18 hrs by agar dilution method; type: functional
[20] = test system: Pseudomonas sp.; experiment: Antibacterial activity against non-gentamicin-resistant Pseudomonas spp. clinical isolate assessed as susceptible isolates after 18 hrs by agar dilution method; type: functional
[21] = test system: Haemophilus influenzae; experiment: Antibacterial activity against non-gentamicin-resistant Haemophilus influenzae clinical isolate assessed as susceptible isolates after 18 hrs by agar dilution method; type: functional, organism-based
[22] = test system: Staphylococcus aureus; experiment: Antibacterial activity against non-gentamicin-resistant Staphylococcus aureus clinical isolate assessed as susceptible isolates after 18 hrs by agar dilution method; type: functional
[23] = test system: Enterobacter cloacae; experiment: Antibacterial activity against gentamicin-resistant Enterobacter cloacae clinical isolate after 18 hrs by agar dilution method; type: functional
[24] = test system: Citrobacter koseri; experiment: Antibacterial activity against gentamicin-resistant Citrobacter diversus clinical isolate after 18 hrs by agar dilution method; type: functional
[25] = test system: Proteus mirabilis; experiment: Antibacterial activity against gentamicin-resistant Proteus mirabilis clinical isolate after 18 hrs by agar dilution method; type: functional
[26] = test system: Serratia marcescens; experiment: Antibacterial activity against gentamicin-resistant Serratia marcescens clinical isolate after 18 hrs by agar dilution method; type: functional
[27] = test system: Morganella morganii; experiment: Antibacterial activity against gentamicin-resistant Morganella morganii clinical isolate after 18 hrs by agar dilution method; type: functional
[28] = test system: Citrobacter freundii; experiment: Antibacterial activity against gentamicin-resistant Citrobacter freundii clinical isolate after 18 hrs by agar dilution method; type: functional
[29] = test system: Pseudomonas aeruginosa; experiment: Antibacterial activity against gentamicin-resistant Pseudomonas aeruginosa clinical isolate after 18 hrs by agar dilution method; type: functional
[30] = test system: Pseudomonas sp.; experiment: Antibacterial activity against gentamicin-resistant Pseudomonas spp. clinical isolate after 18 hrs by agar dilution method; type: functional
[31] = test system: Staphylococcus aureus; experiment: Antibacterial activity against gentamicin-resistant Staphylococcus aureus clinical isolate after 18 hrs by agar dilution method; type: functional
[32] = test system: Staphylococcus epidermidis; experiment: Antibacterial activity against gentamicin-resistant Staphylococcus epidermidis clinical isolate after 18 hrs by agar dilution method; type: functional
[33] = test system: Enterococcus faecalis; experiment: Antibacterial activity against gentamicin-resistant Enterococcus faecalis clinical isolate after 18 hrs by agar dilution method; type: functional
[34] = test system: Escherichia coli; experiment: Antibacterial activity against gentamicin-resistant Escherichia coli clinical isolate assessed as susceptible isolates after 18 hrs by agar dilution method; type: functional
[35] = test system: Enterobacter cloacae; experiment: Antibacterial activity against gentamicin-resistant Enterobacter cloacae clinical isolate assessed as susceptible isolates after 18 hrs by agar dilution method; type: functional
[36] = test system: Klebsiella aerogenes; experiment: Antibacterial activity against gentamicin-resistant Enterobacter aerogenes clinical isolate assessed as susceptible isolates after 18 hrs by agar dilution method; type: functional
[37] = test system: Proteus mirabilis; experiment: Antibacterial activity against gentamicin-resistant Proteus mirabilis clinical isolate assessed as susceptible isolates after 18 hrs by agar dilution method; type: functional
[38] = test system: Morganella morganii; experiment: Antibacterial activity against gentamicin-resistant Morganella morganii clinical isolate assessed as susceptible isolates after 18 hrs by agar dilution method; type: functional
[39] = test system: Providencia rettgeri; experiment: Antibacterial activity against gentamicin-resistant Proteus rettgeri clinical isolate assessed as susceptible isolates after 18 hrs by agar dilution method; type: functional
[40] = test system: Pseudomonas aeruginosa; experiment: Antibacterial activity against gentamicin-resistant Pseudomonas aeruginosa clinical isolate assessed as susceptible isolates after 18 hrs by agar dilution method; type: functional
[41] = test system: Pseudomonas sp.; experiment: Antibacterial activity against gentamicin-resistant Pseudomonas spp. clinical isolate assessed as susceptible isolates after 18 hrs by agar dilution method; type: functional
[42] = test system: Staphylococcus aureus; experiment: Antibacterial activity against gentamicin-resistant Staphylococcus aureus clinical isolate assessed as susceptible isolates after 18 hrs by agar dilution method; type: functional
[43] = test system: Staphylococcus epidermidis; experiment: Antibacterial activity against gentamicin-resistant Staphylococcus epidermidis clinical isolate assessed as susceptible isolates after 18 hrs by agar dilution method; type: functional
[44] = test system: Enterococcus faecalis; experiment: Antibacterial activity against gentamicin-resistant Enterococcus faecalis clinical isolate assessed as susceptible isolates after 18 hrs by agar dilution method; type: functional, organism-based
[45] = test system: Escherichia coli BL21(DE3); experiment: Acetylation activity of AAC(6')-APH(2'') in Escherichia coli BL21(DE3) assessed as production of free pyridine-4-thiolate
[46] = test system: Escherichia coli BL21(DE3); experiment: Phosphorylation activity of AAC(6')-APH(2'') in Escherichia coli BL21(DE3) assessed as oxidation of NADH by pyruvate kinase

SMILES: CCN[C@@H]1C[C@H](N)[C@@H](O[C@@H]2OC(C(C)N)=CC[C@@H]2N)[C@H](O)[C@H]1O[C@H]1OC[C@](C)(O)[C@H](NC)[C@H]1O (some centres undefined) [VERTILMICIN]
- MIC50 [1]: 0.5 µg/mL (≈ 1.02 µM)
- MIC90 [1]: 0.5 µg/mL (≈ 1.02 µM)
- MIC50 [2]: 0.5 µg/mL (≈ 1.02 µM)
- MIC90 [2]: 2 µg/mL (≈ 4.08 µM)
- MIC [3]: 0.25 µg/mL (≈ 0.511 µM)
- MIC50 [3]: 0.25 µg/mL (≈ 0.511 µM)
- MIC90 [3]: 0.5 µg/mL (≈ 1.02 µM)
- MIC50 [4]: 0.5 µg/mL (≈ 1.02 µM)
- MIC90 [4]: 8 µg/mL (≈ 16.3 µM)
- MIC50 [5]: 2 µg/mL (≈ 4.08 µM)
- MIC90 [5]: 8 µg/mL (≈ 16.3 µM)
- MIC50 [6]: 1 µg/mL (≈ 2.04 µM)
- MIC90 [6]: 2 µg/mL (≈ 4.08 µM)
- MIC50 [7]: 8 µg/mL (≈ 16.3 µM)
- MIC90 [7]: 32 µg/mL (≈ 65.4 µM)
- MIC50 [8]: 8 µg/mL (≈ 16.3 µM)
- MIC90 [8]: 16 µg/mL (≈ 32.7 µM)
- MIC50 [9]: 1 µg/mL (≈ 2.04 µM)
- MIC90 [9]: 1 µg/mL (≈ 2.04 µM)
- MIC50 [10]: 1 µg/mL (≈ 2.04 µM)
- MIC90 [10]: 2 µg/mL (≈ 4.08 µM)
- MIC50 [11]: 0.125 µg/mL (≈ 0.255 µM)
- MIC90 [11]: 2 µg/mL (≈ 4.08 µM)
- Activity [12]: 100%
- Activity [13]: 100%
- Activity [14]: 98.1%
- Activity [15]: 100%
- Activity [16]: 90%
- Activity [17]: 92.3%
- Activity [18]: 93.8%
- Activity [19]: 78.7%
- Activity [20]: 72.7%
- Activity [21]: inactive
- Activity [22]: 94.8%
- MIC50 [23]: 32 µg/mL (≈ 65.4 µM)
- MIC90 [23]: > 128 µg/mL
- MIC50 [24]: 32 µg/mL (≈ 65.4 µM)
- MIC90 [24]: > 128 µg/mL
- MIC50 [25]: 32 µg/mL (≈ 65.4 µM)
- MIC90 [25]: > 128 µg/mL
- MIC50 [26]: > 128 µg/mL
- MIC90 [26]: > 128 µg/mL
- MIC50 [27]: 8 µg/mL (≈ 16.3 µM)
- MIC90 [27]: 32 µg/mL (≈ 65.4 µM)
- MIC50 [28]: 8 µg/mL (≈ 16.3 µM)
- MIC90 [28]: 32 µg/mL (≈ 65.4 µM)
- MIC50 [29]: 32 µg/mL (≈ 65.4 µM)
- MIC90 [29]: > 128 µg/mL
- MIC50 [30]: 128 µg/mL (≈ 261 µM)
- MIC90 [30]: > 128 µg/mL
- MIC50 [31]: 4 µg/mL (≈ 8.17 µM)
- MIC90 [31]: 16 µg/mL (≈ 32.7 µM)
- MIC50 [32]: 2 µg/mL (≈ 4.08 µM)
- MIC90 [32]: 16 µg/mL (≈ 32.7 µM)
- MIC50 [33]: 4 µg/mL (≈ 8.17 µM)
- MIC90 [33]: > 128 µg/mL
- Activity [34]: 68.4%
- Activity [35]: 26.3%
- Activity [36]: 30%
- Activity [37]: 36.4%
- Activity [38]: 50%
- Activity [39]: 53.3%
- Activity [40]: 17.6%
- Activity [41]: 7.7%
- Activity [42]: 83.3%
- Activity [43]: 88.5%
- Activity [44]: inactive
- Km [45]: 469 µM
- Km [46]: 104 µM
